The structures appear in SMILES notation. Where a name gives a salt, the structure may show the parent alone.

The IC50 is the concentration at which inhibition is half-maximal.

The assay deals with T1, human NaV1.8 (hNaV1.8) ion channel (Homo sapiens, UniProt Q9Y5Y9).
T1 construct: expressed in transfected cells
T1 sequence (Q9Y5Y9 whole entry): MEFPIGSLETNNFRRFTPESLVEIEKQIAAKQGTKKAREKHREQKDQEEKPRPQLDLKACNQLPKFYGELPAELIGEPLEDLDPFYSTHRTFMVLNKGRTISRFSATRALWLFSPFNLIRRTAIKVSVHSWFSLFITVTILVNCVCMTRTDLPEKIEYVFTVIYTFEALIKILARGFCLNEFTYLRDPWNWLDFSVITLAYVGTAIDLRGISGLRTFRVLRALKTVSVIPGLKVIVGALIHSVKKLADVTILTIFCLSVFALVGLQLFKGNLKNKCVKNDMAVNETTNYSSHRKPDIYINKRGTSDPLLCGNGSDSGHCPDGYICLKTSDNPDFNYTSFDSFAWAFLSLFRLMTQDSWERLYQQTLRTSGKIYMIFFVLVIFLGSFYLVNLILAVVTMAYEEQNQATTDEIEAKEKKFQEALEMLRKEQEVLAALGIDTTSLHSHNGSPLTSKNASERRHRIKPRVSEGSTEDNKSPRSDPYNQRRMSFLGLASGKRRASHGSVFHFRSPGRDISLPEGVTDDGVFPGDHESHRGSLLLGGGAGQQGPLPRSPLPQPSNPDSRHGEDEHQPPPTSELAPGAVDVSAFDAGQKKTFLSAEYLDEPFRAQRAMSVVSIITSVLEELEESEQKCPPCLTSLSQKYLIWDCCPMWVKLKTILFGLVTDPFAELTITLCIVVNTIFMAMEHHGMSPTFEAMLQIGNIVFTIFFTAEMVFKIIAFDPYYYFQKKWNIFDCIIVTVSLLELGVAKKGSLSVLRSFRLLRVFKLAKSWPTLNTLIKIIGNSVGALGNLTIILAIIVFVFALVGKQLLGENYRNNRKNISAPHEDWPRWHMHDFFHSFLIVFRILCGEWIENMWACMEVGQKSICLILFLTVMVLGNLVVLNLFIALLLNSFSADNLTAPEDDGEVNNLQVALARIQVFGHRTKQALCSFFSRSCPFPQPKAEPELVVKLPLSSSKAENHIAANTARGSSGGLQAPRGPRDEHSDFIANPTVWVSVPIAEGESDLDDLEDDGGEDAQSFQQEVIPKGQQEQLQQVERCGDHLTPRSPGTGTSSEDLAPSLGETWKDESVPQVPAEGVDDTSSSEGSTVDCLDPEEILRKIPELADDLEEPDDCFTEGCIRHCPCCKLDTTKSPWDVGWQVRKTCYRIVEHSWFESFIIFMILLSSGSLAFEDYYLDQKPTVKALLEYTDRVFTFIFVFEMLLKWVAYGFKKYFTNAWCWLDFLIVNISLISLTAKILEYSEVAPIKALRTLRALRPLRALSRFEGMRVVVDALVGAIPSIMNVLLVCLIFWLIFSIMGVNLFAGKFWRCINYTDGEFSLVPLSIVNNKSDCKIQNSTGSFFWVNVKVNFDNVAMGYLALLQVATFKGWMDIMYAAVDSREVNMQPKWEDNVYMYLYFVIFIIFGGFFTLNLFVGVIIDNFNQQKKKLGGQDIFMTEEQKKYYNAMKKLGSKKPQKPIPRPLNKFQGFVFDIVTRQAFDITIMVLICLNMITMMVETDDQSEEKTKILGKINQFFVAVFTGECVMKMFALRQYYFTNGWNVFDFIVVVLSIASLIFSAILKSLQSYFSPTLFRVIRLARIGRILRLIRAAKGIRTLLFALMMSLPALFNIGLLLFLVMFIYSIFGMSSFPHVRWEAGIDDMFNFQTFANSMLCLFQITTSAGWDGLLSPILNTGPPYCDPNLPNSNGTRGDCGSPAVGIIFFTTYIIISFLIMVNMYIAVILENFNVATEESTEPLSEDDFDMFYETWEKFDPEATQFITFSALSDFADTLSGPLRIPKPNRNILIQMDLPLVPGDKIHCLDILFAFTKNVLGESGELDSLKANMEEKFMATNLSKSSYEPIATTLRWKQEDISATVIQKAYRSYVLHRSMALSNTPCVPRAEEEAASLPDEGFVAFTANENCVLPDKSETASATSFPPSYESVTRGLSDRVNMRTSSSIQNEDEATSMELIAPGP
Kind of assay: Inhibition of Human NaV1.8 stably expressed in SH-SY-5Y cells (membrane potential dye fluorescence assay). Format: cell-based. The conditions noted are these: SH-SY-5Y cells stably expressing hNaV1.8; FLIPR membrane potential dye; 10 μM pyrethroid, 250 nM TTX; test range 100 μM-0.05 μM; read-out: hNav1.8 IC50.
`CCCCOc1ccc(NC(=O)N2CC(NC(C)c3ccc(F)cc3)C2)cc1` (centres unmarked) [Example 66, 3-[1-(4-Fluoro-phenyl)-ethylamino]-azetidine-1-carboxylic acid (4-butoxy-phenyl)-amide]: the IC50 was 2270 nM.

Turning to `CC(NC1CN(C(=O)Nc2ccc(Oc3ccccc3)cc2)C1)c1c(F)cccc1F` (centres unmarked) [Example 130, 3-[1-(2,6-Difluoro-phenyl)-ethylamino]-azetidine-1-carboxylic acid (4-phenoxy-phenyl)-amide], the IC50 is 750 nM.

As for `CC(c1ccc(F)cc1)N(C)C1CN(C(=O)Nc2ccc(F)c(C(F)(F)F)c2)C1` (centres unmarked) [Example 83, 3-{[1-(4-Fluoro-phenyl)-ethyl]-methyl-amino}-azetidine-1-carboxylic acid (4-fluoro-3-trifluoromethyl-phenyl)-amide], the IC50 was 3930 nM.

With `CC(c1ccc(Oc2ccccc2)cc1)N(C)C1CN(C(=O)Nc2ccc(C(F)(F)F)cc2)C1` (centres unmarked) [Example 90, 3-{Methyl-[1-(4-phenoxy-phenyl)-ethyl]-amino}-azetidine-1-carboxylic acid (4-trifluoromethyl-phenyl)-amide], the concentration for half-maximal inhibition (IC50) came to 1430 nM.

For `CCCCOc1ccc(NC(=O)N2CC(NC3CCc4cc(F)ccc43)C2)cc1` (centres unmarked) [Example 6, 3-(5-Fluoro-indan-1-ylamino)-azetidine-1-carboxylic acid (4-butoxy-phenyl)-amide], the concentration for half-maximal inhibition (IC50) was determined as 1200 nM.

With `CC(NC(=O)N1CC(NC2CCc3cc(F)ccc3C2)C1)c1ccc(C(F)(F)F)cc1` (centres unmarked) [Example 5, 3-(6-Fluoro-1,2,3,4-tetrahydro-naphthalen-2-ylamino)-azetidine-1-carboxylic acid [1-(4-trifluoromethyl-phenyl)-ethyl]-amide], the 50% inhibitory concentration (IC50) amounted to 1740 nM.

`COC(=O)C(NC1CN(C(=O)Nc2ccc(Oc3ccccc3)cc2)C1)c1ccccc1` (centres unmarked) [Example 53, [1-(4-Phenoxy-phenylcarbamoyl)-azetidin-3-ylamino]-phenyl-acetic acid methyl ester]: the IC50 came to 2230 nM.

On to `Cc1ccc(C(C)NC2CN(C(=O)Nc3ccc(Oc4ccccc4)cc3)C2)cc1` (centres unmarked) [Example 121, 3-(1-p-Tolyl-ethylamino)-azetidine-1-carboxylic acid (4-phenoxy-phenyl)-amide], for which the IC50 was 400 nM.

On to `CC(c1ccc(F)cc1)N(C)C1CN(C(=O)Nc2cc(C(F)(F)F)ccc2F)C1` (centres unmarked) [Example 81, 3-{[1-(4-Fluoro-phenyl)-ethyl]-methyl-amino}-azetidine-1-carboxylic acid (2-fluoro-5-trifluoromethyl-phenyl)-amide], for which the IC50 is 8370 nM.

Take `CC(c1ccc(F)cc1)N(C)C1CN(C(=O)Nc2cccc(Oc3ccccc3)c2)C1` (centres unmarked) [Example 109, 3-{[1-(4-Fluoro-phenyl)-ethyl]-methyl-amino}-azetidine-1-carboxylic acid (3-phenoxy-phenyl)-amide]: the IC50 is 470 nM.

For `O=C(Nc1ccc(Oc2ccc(F)cc2)cc1)N1CC(NC2CCc3cc(F)ccc32)C1` (centres unmarked) [Example 136, 3-(5-Fluoro-indan-1-ylamino)-azetidine-1-carboxylic acid [4-(4-fluoro-phenoxy)-phenyl]-amide methanesulfonate salt], the IC50 was 210 nM.

As to `CC(c1ccccc1Cl)N(C)C1CN(C(=O)Nc2cccc(C(F)(F)F)c2)C1` (centres unmarked) [Example 97, 3-{[1-(2-Chloro-phenyl)-ethyl]-methyl-amino}-azetidine-1-carboxylic acid (3-trifluoromethyl-phenyl)-amide], the IC50 was 3640 nM.

Turning to `O=C(Nc1ccc(Oc2cccc(F)c2)cc1)N1CC(NC2CCc3cc(F)ccc32)C1` (centres unmarked) [Example 13, 3-(5-Fluoro-indan-1-ylamino)-azetidine-1-carboxylic acid [4-(3-fluoro-phenoxy)-phenyl]-amide], the IC50 stood at 310 nM.

With `CC(NC1CN(C(=O)Nc2ccc(Oc3ccc(F)cc3)cc2)C1)c1c(F)cccc1F` (centres unmarked) [Example 131, 3-[1-(2,6-Difluoro-phenyl)-ethylamino]-azetidine-1-carboxylic acid [4-(4-fluoro-phenoxy)-phenyl]-amide], the IC50 was 530 nM.

`CCCCOc1ccc(NC(=O)N2CC(N3CCc4cccc(OC)c4C3)C2)cc1` [Example 76, 3-(8-Methoxy-3,4-dihydro-1H-isoquinolin-2-yl)-azetidine-1-carboxylic acid (4-butoxy-phenyl)-amide]: the IC50 was found to be 1410 nM.

As to `O=C(Nc1ccc(Oc2ccc(F)cc2)cc1)N1CC(NC2CCc3cc(F)ccc32)C1` (centres unmarked) [Example 7, 3-(5-Fluoro-indan-1-ylamino)-azetidine-1-carboxylic acid [4-(4-fluoro-phenoxy)-phenyl]-amide], the concentration for half-maximal inhibition (IC50) was determined as 250 nM.

As to `O=C(Nc1ccc(C(F)(F)F)cc1)N1CC(NC2CCc3cc(O)ccc32)C1` (centres unmarked) [Example 33, 3-(5-Hydroxy-indan-1-ylamino)-azetidine-1-carboxylic acid (4-trifluoromethyl-phenyl)-amide], the IC50 was determined as 11500 nM.

For the compound `CCCCOc1ccc(NC(=O)N2CC(N(C)C(C)c3ccccc3C)C2)cc1` (centres unmarked) [Example 89, 3-[Methyl-(1-o-tolyl-ethyl)-amino]-azetidine-1-carboxylic acid (4-butoxy-phenyl)-amide], the half-maximal inhibitory concentration (IC50) was 580 nM.

For `O=C(Nc1ccc(Oc2ccccc2F)cc1)N1CC(NC2CCc3cc(F)ccc32)C1` (centres unmarked) [Example 14, 3-(5-Fluoro-indan-1-ylamino)-azetidine-1-carboxylic acid [4-(2-fluoro-phenoxy)-phenyl]-amide], the concentration for half-maximal inhibition (IC50) is 540 nM.

Turning to `Cc1cc(F)ccc1C(C)N(C)C1CN(C(=O)Nc2ccc(Oc3ccccc3)cc2)C1` (centres unmarked) [Example 117, 3-{[1-(4-Fluoro-2-methyl-phenyl)-ethyl]-methyl-amino}-azetidine-1-carboxylic acid (4-phenoxy-phenyl)-amide], the IC50 was 890 nM.

Consider `O=C(Nc1ccc(C(F)(F)F)cc1)N1CC(NC2CCc3cc(F)ccc32)C1` (centres unmarked) [Example 22, 3-(5-Fluoro-indan-1-ylamino)-azetidine-1-carboxylic acid (4-trifluoromethyl-phenyl)-amide], for which the IC50 was determined as 3110 nM.

For `CN(C1CN(C(=O)Nc2cccc(Oc3ccccc3)c2)C1)C1CCc2cc(F)ccc21` (centres unmarked) [Example 29, 3-[(5-Fluoro-indan-1-yl)-methyl-amino]-azetidine-1-carboxylic acid (3-phenoxy-phenyl)-amide], the IC50 is 420 nM.

With `O=C(Nc1ccc(Oc2ccccc2)cc1)N1CC(NC2CCc3cc(F)ccc32)C1` (centres unmarked) [Example 137, 3-(5-Fluoro-indan-1-ylamino)-azetidine-1-carboxylic acid (4-phenoxy-phenyl)-amide fumarate salt], the half-maximal inhibitory concentration (IC50) turned out to be 270 nM.

For `CC(NC(=O)N1CC(NC2CCc3ccccc3C2)C1)c1ccc(C(F)(F)F)cc1` (centres unmarked) [Example 4, 3-(1,2,3,4-Tetrahydro-naphthalen-2-ylamino)-azetidine-1-carboxylic acid [1-(4-trifluoromethyl-phenyl)-ethyl]-amide], the half-maximal inhibitory concentration (IC50) came to 3320 nM.

`Cc1cc(F)ccc1C(C)NC1CN(C(=O)Nc2ccc(C(F)(F)F)cc2)C1` (centres unmarked) [Example 114, 3-[1-(4-Fluoro-2-methyl-phenyl)-ethylamino]-azetidine-1-carboxylic acid (4-trifluoromethyl-phenyl)-amide]: the half-maximal inhibitory concentration (IC50) came out at 2300 nM.

On to `CC(c1ccc(F)cc1Cl)N(C)C1CN(C(=O)Nc2ccc(C(F)(F)F)cc2)C1` (centres unmarked) [Example 59, 3-{[1-(2-Chloro-4-fluoro-phenyl)-ethyl]-methyl-amino}-azetidine-1-carboxylic acid (4-trifluoromethyl-phenyl)-amide], for which the IC50 is 1870 nM.

(Values after patent US20100105651A1, “ANTAGONISTS OF SNS SODIUM CHANNELS” (priority 2005, published 2010).)
